Assay results reported in patent US6605601B2, “A1 adenosine receptor antagonists” (Biogen, Inc., priority 2000, dated 2003).

Molecular target: T1, rat A1 adenosine receptor (Rattus norvegicus, UniProt P25099)
T1 construct: Membranes were prepared from rat cerebral cortex isolated from freshly euthanized rats; from tissue; host or cells: rat cerebral cortex
T1 sequence (P25099 1-326): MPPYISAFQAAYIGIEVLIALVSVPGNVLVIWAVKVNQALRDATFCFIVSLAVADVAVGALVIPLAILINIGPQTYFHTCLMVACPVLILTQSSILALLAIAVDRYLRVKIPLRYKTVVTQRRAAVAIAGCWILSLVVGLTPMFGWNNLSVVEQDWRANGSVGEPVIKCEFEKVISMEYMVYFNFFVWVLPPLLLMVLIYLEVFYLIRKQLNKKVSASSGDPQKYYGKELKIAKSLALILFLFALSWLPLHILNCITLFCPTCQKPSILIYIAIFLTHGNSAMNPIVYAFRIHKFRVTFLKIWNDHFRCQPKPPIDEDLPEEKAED
Assay: Radioligand ([3H]DPCPX) competition binding assay on rat A1 adenosine receptor (rat cerebral cortex membranes)
Conditions: for Ki: [3H]DPCPX 1 nM, Cheng-Prusoff from IC50; for % specific radioligand binding remaining at 1 µM: 2.5 h, % of total specific radioligand binding remaining at 1 μM of competing compound
Procedure: For some of these compounds, the Ki values for rat and human adenosine A1 receptors were determined according to the following binding assay protocol.
Rat A1 Receptor: Membranes were prepared from rat cerebral cortex isolated from freshly euthanized rats. Tissues were homogenized in buffer A (10 mM EDTA, 10 mM Na-HEPES, pH 7.4) supplemented with protease inhibitors (10 μg/ml benzamidine, 100 μM PMSF, and 2 μg/ml each of aprotinin, pepstatin and leupeptin), and centrifuged at 20,000×g for 20 min. Pellets were resuspended and washed twice with buffer HE (10 mM Na-HEPES, 1 mM EDTA, pH 7.4, plus protease inhibitors). Final pellets were resuspended in buffer HE, supplemented with 10% (w/v) sucrose and protease inhibitors, and frozen in aliquots at −80° C. Protein concentrations were measured using BCA protein assay kit (Pierce).
Membranes (50 μg membrane protein for rat A1ARs, and 25 μg of CHO-K1 membrane protein for human A1ARs), radioligands and varying concentrations of competing ligands were incubated in triplicates in 0.1 ml buffer HE plus 2 units/ml adenosine deaminase for 2.5 h at 21° C. Radioligand [^3H]DPCPX (112 Ci/mmol from NEN, final concentration: 1 nM) was used for competition binding assays on A1ARs. Nonspecific binding was measured in the presence of 10 μM BG9719. Binding assays were terminated by filtration over Whatman GF/C glass fiber filters using a BRANDEL cell harvester. Filters were rinsed three times with 3-4 ml ice-cold 10 mM Tris-HCl, pH 7.4 and 5 mM MgCl2 at 4° C. Filter paper was transferred to a vial, and 3 ml of scintillation cocktail ScintiVerseII (Fisher)was added. Radioactivity was counted in a Wallac β-counter.
For K1 Determinations: Competition binding data were fit to a single-site binding model and plotted using Prizm GraphPad.
For % Binding: For one-point binding assays, data were presented as % of total specific binding at 1 μM of competing compound: % of total =100* (Specific binding with 1 μM of competing compound/total specific binding). % binding represents the amount of bound radioligand remaining in the presence of 1 μM of competing antagonist.

Row | Structure (SMILES) | Ki [nM] | % specific radioligand binding remaining at 1 µM [%]
1 | CCCN1C(=O)N2CCN=C2c2[nH]c(C34CCC(C(=O)O)(CC3)CC4)nc21 [Compound 6, 4-(5-Oxo-4-propyl-4,5,6,7-tetrahydro-1H-1,3,4,5a,8-pentaaza-as-indacen-2-yl)-bicyclo[2.2.2]octane-l-carboxylic acid] |  | 2.6
2 | CCCN1C(=O)N2C[C@@H](CC)N=C2c2[nH]c(C34CCC(CC3)CC4)nc21 [Compound 9] | 26.7 | 0.1
3 | CCCN1C(=O)N2C[C@@H](Cc3ccccc3)N=C2c2[nH]c(C34CCC(O)(CC3)CC4)nc21 [Compound 18] | 708 | 
4 | CCCN1C(=O)N2CCCCN=C2c2[nH]c(C34CCC(O)(CC3)CC4)nc21 [Compound 27] |  | 16.3
5 | CCCN1C(=O)N2C[C@@H](CC)N=C2c2[nH]c(C34CCC(C(=O)O)(CC3)CC4)nc21 [Compound 10] | 40.2 | 6.2
6 | CCCN1C(=O)N2C(=NC[C@@H]2C)c2[nH]c(C34CCC(O)(CC3)CC4)nc21 [Compound 12] | 51.3 | 8.6
7 | CCCN1C(=O)N2C[C@@H](c3ccccc3)N=C2c2[nH]c(C34CCC(O)(CC3)CC4)nc21 [Compound 13] | 68.3 | 
8 | CCCN1C(=O)N2C[C@@H](CC)N=C2c2[nH]c(C34CCC(CCC(=O)O)(CC3)CC4)nc21 [Compound 3, 3-[4-(7-Ethyl-5-oxo-4-propyl-4,5,6,7-tetrahydro-1H-1,3,4,5a,8-pentaaza-as-indacen-2-yl)-bicyclo[2.2.2]oct-1-yl]-propionic acid] | 8.38 | 
9 | CCCN1C(=O)N2C[C@@H](Cc3ccc(O)cc3)N=C2c2[nH]c(C34CCC(O)(CC3)CC4)nc21 [Compound 28] |  | 36.3
10 | CCC[C@@H]1CN2C(=O)N(CCC)c3nc(C45CCC(C(=O)O)(CC4)CC5)[nH]c3C2=N1 [Compound 23] |  | 22.8
11 | CCCN1C(=O)N2CCCN=C2c2[nH]c(C34CCC(C(=O)O)(CC3)CC4)nc21 [Compound 29] |  | 81.8
12 | CCCN1C(=O)N2C[C@H](CC)N=C2c2[nH]c(C34CCC(C(=O)O)(CC3)CC4)nc21 [Compound 26] |  | 41.1
13 | CCCN1C(=O)N2CCCN=C2c2[nH]c(C34CCC(O)(CC3)CC4)nc21 [Compound 20] |  | 52.7
14 | CCCN1C(=O)N2C[C@@H](C(C)C)N=C2c2[nH]c(C34CCC(CCC(=O)O)(CC3)CC4)nc21 [Compound 5, 3-[4-(7-Isopropyl-5-oxo-4-propyl-4,5,6,7-tetrahydro-1H-1,3,4,5a,8-pentaaza-as-indacen-2-yl)-bicyclo[2.2.2]oct-1-yl]-propionic acid] | 10.5 | 1.9
15 | CCCN1C(=O)N2C(=NC[C@H]2C)c2[nH]c(C34CCC(O)(CC3)CC4)nc21 [Compound 14] | 68.5 | 7.8
16 | CCCN1C(=O)N2CCCCN=C2c2[nH]c(C34CCC(C(=O)O)(CC3)CC4)nc21 [Compound 30] |  | 71
17 | CCCN1C(=O)N2C[C@@H](C)N=C2c2[nH]c(C34CCC(C(=O)O)(CC3)CC4)nc21 [Compound 22] |  | 24
18 | CCCN1C(=O)N2C[C@@H](C)N=C2c2[nH]c(C34CCC(CCC(=O)O)(CC3)CC4)nc21 [Compound 7] | 13.7 | 2.5

Other lines, results leading:

Row | Ki [nM] | % specific radioligand binding remaining at 1 µM [%] | Structure (SMILES)
19 | 155 |  | CCCN1C(=O)N2C[C@@H](C(C)(C)C)N=C2c2[nH]c(C34CCC(O)(CC3)CC4)nc21 [Compound 16]
20 | 14.1 | 1 | CCCN1C(=O)N2C[C@@H](C(C)CC)N=C2c2[nH]c(C34CCC(O)(CC3)CC4)nc21 (stereo partly shown) [Compound 8]
21 | 9.92 |  | CCCN1C(=O)N2C[C@@H](C)N=C2c2[nH]c(C34CCC(O)(CC3)CC4)nc21 [Compound 4, 2-(4-Hydroxy-bicyclo[2.2.2]oct-1-yl)-7-methyl-4-propyl-1,4,6,7-tetrahydro-1,3,4,5a,8-pentaaza-as-indacen-5-one]
22 | 93 | 7.7 | CCCN1C(=O)N2C[C@H](C(C)CC)N=C2c2[nH]c(C34CCC(O)(CC3)CC4)nc21 (stereo partly shown) [Compound 15]
23 |  | 40 | CCCN1C(=O)N2CC[C@@H](C)N=C2c2[nH]c(C34CCC(O)(CC3)CC4)nc21 [Compound 31]
24 | 5.75 |  | CCCN1C(=O)N2C[C@@H](CC)N=C2c2[nH]c(C34CCC(O)(CC3)CC4)nc21 [Compound 2, 7-Ethyl-2-(4-hydroxy-bicyclo[2.2.2]oct-1-yl)-4-propyl-1,4,6,7-tetrahydro-1,3,4,5a,8-pentaaza-as-indacen-5-one]
25 |  | 12.2 | CCCN1C(=O)N2CCN=C2c2[nH]c(C34CCC(O)(CC3)CC4)nc21 [Compound 21]
26 | 4.4 |  | CCCN1C(=O)N2C[C@@H](C(C)C)N=C2c2[nH]c(C34CCC(O)(CC3)CC4)nc21 [Compound 1, 2-(4-Hydroxy-bicyclo[2.2.2]oct-1-yl)-7-isopropyl-4-propyl-1,4,6,7-tetrahydro-1,3,4,5a,8-pentaaza-as-indacen-5-one]
27 |  | 18.1 | CCCC[C@@H]1CN2C(=O)N(CCC)c3nc(C45CCC(O)(CC4)CC5)[nH]c3C2=N1 [Compound 19]
28 | 43.2 | 3.7 | CCC[C@@H]1CN2C(=O)N(CCC)c3nc(C45CCC(O)(CC4)CC5)[nH]c3C2=N1 [Compound 11]
29 |  | 11 | CCCN1C(=O)N2C[C@H](CC)N=C2c2[nH]c(C34CCC(O)(CC3)CC4)nc21 [Compound 24]
30 | 167 |  | CCCN1C(=O)N2C[C@@H](CC(C)C)N=C2c2[nH]c(C34CCC(O)(CC3)CC4)nc21 [Compound 17]
31 |  | 46.7 | CCCN1C(=O)N2C[C@@H](C(C)C)N=C2c2[nH]c(C34CCC(C(=O)O)(CC3)CC4)nc21 [Compound 25]
